# Results published in publication PMC10288352 (IET Nanobiotechnology, 2023).
# Where two headings read alike, the source gives them in different places.
# Legend:
# Xanthine oxidase (XO) [1] = target: T1, Xanthine oxidase (XO) (Bos taurus, UniProt P80457); assay: Determination of xanthine oxidase activity (UV, 290 nm); assay type: biochemical, cow
# Description: Xanthine oxidase activity was determined following a previously reported method [20]. The test compounds were dissolved in DMSO, and the resulting solutions were appropriately diluted for the assay. Xanthine oxidase and xanthine solutions with concentrations of 0.04 U/mL and 0.1 mmol/L, respectively, were prepared using 0.2 mol/L phosphate buffered solution (PBS, pH 7.4) as the solvent. An aliquot of the test solution (0.1 ml) with various concentrations was added separately to XO solution (0.2 ml). The resulting solution was well mixed and incubated for 5 min at 298 K. Then, the substrate (xanthine) solution was pipetted into the mixture to initiate the enzymatic reaction, and the OD value of the resulting solution was recorded every 60 s at 290 nm using a UV spectrometer (UV 2550, SHIMADZU) at 298 K. Xanthine oxidase activity was determined without adding an inhibitor and was considered 100%. […] Each test was performed three times (n = 3). The equation for calculating the relative activity (RA) of XO is as follows: RA (%) = R i/R c × 100%, where R i and R c represent the reaction rates of the solution with and without inhibitors, respectively. The IC50 value was calculated based on the plot of RA versus inhibitor concentration.
# Xanthine oxidase (XO) [2] = target: T1, Xanthine oxidase (XO); assay: Kinetic analysis of XO inhibition (Lineweaver-Burk); assay type: biochemical, cow
# Description: Here, [S] and [I] represent the substrate (xanthine) and inhibitor (EA) concentrations, respectively. The reaction rate and maximum reaction rate are represented by ν and Vmax, respectively. K i and K is indicate the inhibition constants of EA binding with the free XO and XO‐xanthine complex, respectively. The Michaelis‐Menten constant is denoted by the symbol K m . The type of inhibition exerted by EA on XO was determined using Equation (1).
# Xanthine oxidase (XO) [3] = target: T1, Xanthine oxidase (XO); assay: Fluorescence titration (quenching) assay; assay type: binding, cow; conditions: for Kq (quenching rate constant): τ0 10^−8 s
# Description: An aliquot of XO solution (2.0 ml, 0.04 U/mL) was placed in a quartz cuvette (1 cm) and titrated with 0.1 ml EA solution (0.1 mmol/L) each time. The mixture was then placed in a thermostatic bath, and after 5 min, fluorescence spectra ranging from 290 to 500 nm (excitation: 280 nm) were recorded at 298, 304 and 310 K using the FS5 spectrofluorometer (Edinburgh Instruments, England). The fluorescence background was corrected by subtracting the PBS blank. Additionally, to account for EA's UV absorption, all fluorescence data were corrected according to the following equation: (4) Fc=Fme^A1+A2/2
# Here, F m and F c represent the measured and corrected fluorescence, respectively, and A1 and A2 denote EA UV absorbance at 280 nm (excitation wavelength) and 404 nm (emission wavelength), respectively.
# The Stern‐Volmer equation shown below was used to distinguish the quenching mechanism. (5) F0/F=1+Kqτ0[Q]=1+Ksv[Q]
# The fluorescence intensities with and without EA are indicated by the symbols F and F 0, respectively. The quenching rate constant of the biological macromolecule is represented by K q . The average lifetime of fluorophore is represented by the symbol τ0 (10^−8 s). K SV is the dynamic quenching constant of Stern–Volmer; [Q] is the concentration of EA. […] Then K SV values at 298, 304 and 310 K were calculated to be 1.881 × 10^5, 1.661 × 10^5, and 1.455 × 10^5 L/mol, respectively, using the Stern‐Volmer equation. […] Similarly, the K q values at 298, 304 and 310 K were determined to be 1.881 × 10^13, 1.661 × 10^13, and 1.455 × 10^13 L/(mol·s), respectively.
# (6) logF0−F/F=logKa+nlog[Q]
# To determine the interaction forces between EA and XO, such as hydrogen bonding, hydrophobic interaction, van der Waals force, and electrostatic force, thermodynamic parameters including […], and Gibbs free energy (△G) were analysed using the Van't Hoff Equation (7) and Gibbs‐Helmholtz Equation (8) at different temperatures. The equations are as follows: (7) logKa=−∆H/2.303RT+∆S/2.303R (8) ∆G=∆H−T∆S
# [4] = tested on: PO-induced hyperuricemia mouse model; assay: PO-induced hyperuricemic mouse model, serum uric acid; assay type: in vivo, ICR mice; conditions: mice
# Description: ICR mice weighing 25 ± 2 g were purchased from Wushi Dongwu Co., LTD (Fujian, China). The protocol for animal experiments (#202030) was approved by the Animal Use and Care Committee of Putian University. To establish a hyperuricemic mouse model, we followed our previously reported method, which involved intraperitoneal injection of PO at a dose of 250 mg/kg. […] Mice in all groups except the CG were given PO to raise serum uric acid levels, while the CG mice were given 1 ml of 0.9% NaCl. […] After 2 hours, blood was obtained from the tail vein and was centrifuged at 4000 rpm for 8 min. The serum obtained was kept at −80 °C for the following assay.
# mice = assay: NOEL estimated for mice from rat value; assay type: in vivo
# xanthine oxidase (XO) [5] = target: xanthine oxidase (XO); set-up: method as in PMID 2393948; conditions: read-out: IC50 (XO inhibition); cited from earlier work
# xanthine oxidase (XO) [6] = target: xanthine oxidase (XO); set-up: method as in PMID 15234783; conditions: read-out: IC50 (XO inhibition); cited from earlier work
# xanthine oxidase (XO) [7] = target: xanthine oxidase (XO); set-up: method as in doi:10.2991/efood.k.190802.004; conditions: read-out: IC50 (XO inhibition); cited from earlier work
# xanthine oxidase (XO) [8] = target: xanthine oxidase (XO); set-up: method as in PMID 29567192; conditions: fluorescence quenching technology; read-out: IC50 (XO inhibition); cited from earlier work
# xanthine oxidase (XO) [9] = conditions: read-out: IC50 (XO inhibition); cited from earlier work
# [10] = cited from earlier work
# rats = conditions: cited from earlier work
# [11] = Van't Hoff equation, 298, 304 and 310 K
# T1 sequence (P80457 whole entry): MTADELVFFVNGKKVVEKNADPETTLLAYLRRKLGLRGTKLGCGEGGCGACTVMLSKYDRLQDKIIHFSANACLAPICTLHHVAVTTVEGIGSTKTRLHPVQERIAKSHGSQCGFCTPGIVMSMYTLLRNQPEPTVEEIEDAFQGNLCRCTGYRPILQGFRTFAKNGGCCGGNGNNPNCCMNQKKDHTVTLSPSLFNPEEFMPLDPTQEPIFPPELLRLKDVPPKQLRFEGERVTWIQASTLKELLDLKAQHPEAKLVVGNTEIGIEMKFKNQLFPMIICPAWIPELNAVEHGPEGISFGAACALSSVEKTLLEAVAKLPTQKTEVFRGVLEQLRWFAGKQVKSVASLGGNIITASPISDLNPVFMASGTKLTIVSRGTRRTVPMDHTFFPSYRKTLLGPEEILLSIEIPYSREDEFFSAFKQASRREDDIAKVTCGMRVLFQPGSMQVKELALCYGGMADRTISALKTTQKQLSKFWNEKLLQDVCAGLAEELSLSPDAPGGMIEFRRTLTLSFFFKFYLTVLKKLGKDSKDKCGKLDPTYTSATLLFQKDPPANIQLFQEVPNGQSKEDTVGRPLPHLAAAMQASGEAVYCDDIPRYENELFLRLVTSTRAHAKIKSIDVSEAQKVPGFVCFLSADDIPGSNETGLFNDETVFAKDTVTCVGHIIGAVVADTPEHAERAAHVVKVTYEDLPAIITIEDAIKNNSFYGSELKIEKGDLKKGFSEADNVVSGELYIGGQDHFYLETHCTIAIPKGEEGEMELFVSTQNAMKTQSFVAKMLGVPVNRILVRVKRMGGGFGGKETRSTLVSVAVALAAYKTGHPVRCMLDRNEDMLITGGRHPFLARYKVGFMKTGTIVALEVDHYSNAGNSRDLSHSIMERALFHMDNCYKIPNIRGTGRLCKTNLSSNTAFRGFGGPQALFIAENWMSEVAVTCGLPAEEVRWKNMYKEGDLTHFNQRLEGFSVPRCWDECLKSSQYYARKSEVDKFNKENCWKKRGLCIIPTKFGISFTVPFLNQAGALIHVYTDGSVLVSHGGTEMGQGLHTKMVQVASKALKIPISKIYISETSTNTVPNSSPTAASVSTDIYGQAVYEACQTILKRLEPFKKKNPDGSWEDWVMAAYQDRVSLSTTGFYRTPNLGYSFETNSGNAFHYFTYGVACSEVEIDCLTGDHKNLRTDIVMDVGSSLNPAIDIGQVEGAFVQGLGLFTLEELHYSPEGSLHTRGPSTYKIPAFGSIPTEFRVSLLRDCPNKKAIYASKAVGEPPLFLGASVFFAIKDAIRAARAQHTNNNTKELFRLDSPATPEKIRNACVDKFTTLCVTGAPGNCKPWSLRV
structure (smiles),measurement,setting,value
"O=c1oc2c(O)c(O)cc3c(=O)oc4c(O)c(O)cc1c4c23 [EA, Ellagic acid]",IC50,"Xanthine oxidase (XO) [1]; T = 298 K, pH 7.4, [xanthine] = 0.1 mmol/L, [XO] = 0.04 U/mL, read-out: IC50 (XO inhibition)",22.97 ± 0.12 µM
same,Reversibility of XO inhibition,"Xanthine oxidase (XO) [1]; plots of ν versus [XO], [xanthine] = 0.1 mmol/L",reversible inhibitor
same,Type of inhibition on XO,Xanthine oxidase (XO) [2]; Lineweaver-Burk plot,mixed‐type inhibitor
same,"Kis (inhibition constant, binding with XO-xanthine complex)","Xanthine oxidase (XO) [2]; [XO] = 0.04 U/mL, xanthine 6.25 to 50 μmol/L",57.24 ± 0.23 µmol/L
same,Ki,"Xanthine oxidase (XO) [2]; [XO] = 0.04 U/mL, xanthine 6.25 to 50 μmol/L, read-out: Ki (inhibition constant, binding with free XO)",10.6 ± 0.08 µM
same,Fluorescence quenching mechanism,Xanthine oxidase (XO) [3],static quenching
same,KSV (Stern-Volmer dynamic quenching constant),Xanthine oxidase (XO) [3]; 298 K,188100 L/mol
same,Ksv,Xanthine oxidase (XO) [3]; 298 K,1.881 ± 0.05 ×10^5 L/mol
same,n (number of binding sites),Xanthine oxidase (XO) [3]; 298 K,1.183 ± 0.02
same,△G,Xanthine oxidase (XO) [3]; 298 K,-5.753 ± 0.0669 kcal/mol
same,Kq (quenching rate constant),Xanthine oxidase (XO) [3]; 298 K,1.881e+13 M⁻¹ s⁻¹
same,KSV (Stern-Volmer dynamic quenching constant),Xanthine oxidase (XO) [3]; 304 K,166100 L/mol
same,Ksv,Xanthine oxidase (XO) [3]; 304 K,1.661 ± 0.03 ×10^5 L/mol
same,n (number of binding sites),Xanthine oxidase (XO) [3]; 304 K,1.236 ± 0.04
same,△G,Xanthine oxidase (XO) [3]; 304 K,-5.758 ± 0.0765 kcal/mol
same,Kq (quenching rate constant),Xanthine oxidase (XO) [3]; 304 K,1.661e+13 M⁻¹ s⁻¹
same,KSV (Stern-Volmer dynamic quenching constant),Xanthine oxidase (XO) [3]; 310 K,145500 L/mol
same,Ksv,Xanthine oxidase (XO) [3]; 310 K,1.455 ± 0.04 ×10^5 L/mol
same,n (number of binding sites),Xanthine oxidase (XO) [3]; 310 K,1.308 ± 0.02
same,△G,Xanthine oxidase (XO) [3]; 310 K,-5.762 ± 0.0813 kcal/mol
same,Kq (quenching rate constant),Xanthine oxidase (XO) [3]; 310 K,1.455e+13 M⁻¹ s⁻¹
same,XO fluorescence intensity decreased to,"Xanthine oxidase (XO) [3]; EA […] μmol/L, 404 nm, Ex 280 nm",14.15%
same,△H,Xanthine oxidase (XO) [3]; [11],-5.514 ± 0.0598 kcal/mol
same,△S,Xanthine oxidase (XO) [3]; [11],3.36 ± 0.03 J/mol/K
same,Serum uric acid,"[4]; 160 mg/kg intragastrically after PO 250 mg/kg i.p., MG 6.18 ± 0.18",5.09 ± 0.57 mg/dL
same,Serum uric acid,"[4]; 320 mg/kg intragastrically after PO 250 mg/kg i.p., MG 6.18 ± 0.18",4.19 ± 0.53 mg/dL
same,Serum uric acid,"[4]; 480 mg/kg intragastrically after PO 250 mg/kg i.p., MG 6.18 ± 0.18",2.87 ± 0.41 mg/dL
same,"NOEL, estimated value for mice",mice,4215 mg/kg/day
same,IC50,xanthine oxidase (XO) [5],3.1 µM
same,IC50,xanthine oxidase (XO) [6],71.5 µM
same,IC50,xanthine oxidase (XO) [7],18 µM
same,IC50,xanthine oxidase (XO) [8],6.5 µM
same,IC50,xanthine oxidase (XO) [9],166 µM
same,Bioavailability,[10],very poor
same,Permeability,[10],limited
same,Solubility,[10],low
same,Safe dietary supplement dose,"rats; rat, in vivo",≤ 3011 mg/kg/day
same,Safe dietary supplement level,"rats; rat, in vivo",up to 5%
same,no-observed-effect level (NOEL),rats; rats,3011 mg/kg/day
"Oc1ncnc2[nH]ncc12 [allopurinol, reference compound]",Serum uric acid,"[4]; 20 mg/kg intragastrically after PO 250 mg/kg i.p., MG 6.18 ± 0.18, CG 2.16 ± 0.51",2.01 ± 0.34 mg/dL
